Data taken from PubChem BioAssay AID1919002 (Molecular Pharmacology Branch, DTP, NCI, 2023).
“And” between values parts separate entries of the source, which are not always exact repeats. Equal values may be shown once.

Test system: 743489-274-T-PDC complex spheroid growth
Assay: Anticancer human tumor 743489-274-T-PDC patient-derived renal cell carcinoma cell line growth inhibition [AhR]
Settings: for viability, T/C: stronger effect = lower value
In short: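 Complex tumor spheroids co-cultured with HUVEC and human MSC stroma; AhR antagonists tested in combination with standard-of-care and investigational agents. Top concentration at or near clinical Cmax (else 10 microM), half-log dilutions; growth expressed as percent test/control.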

[1] = curve of first compound, second compound 0.1 µM
[2] = curve of first compound, second compound 0.316 µM
[3] = curve of first compound, second compound 1 µM
[4] = curve of first compound, second compound 3.16 µM
[5] = curve of first compound, second compound 10 µM
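Note: spheroids exposed to agents for 7 days before readout.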
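Throughout, for viability, T/C: 100% = DMSO vehicle control wells.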

For `CCN(c1cc(-c2ccc(CN3CCOCC3)cc2)cc(C(=O)NCc2c(C)cc(C)[nH]c2=O)c1C)C1CCOCC1` + Cc1cncc(-c2nc(NCCc3c[nH]c4ccccc34)c3ncn(C(C)C)c3n2)c1, the IC50 [1] was > 3 µM, the IC50 [2] was > 3 µM and the IC50 [3] was > 3 µM. For the same compound, the IC50 [4] was > 3 µM, the IC50 [5] was > 3 µM and the viability, T/C (second compound 0.1 µM, first compound 0.00949 µM) was 102%. It also gave a viability, T/C (second compound 0.1 µM, first compound 0.03 µM) of 102%, a viability, T/C (second compound 0.1 µM, first compound 0.0949 µM) of 99.9% and a viability, T/C (second compound 0.1 µM, first compound 0.3 µM) of 91.3%. It also gave a viability, T/C (second compound 0.1 µM, first compound 0.949 µM) of 92.7%, a viability, T/C (second compound 0.1 µM, first compound 3 µM) of 94.4% and a viability, T/C (second compound 0.316 µM, first compound 0.00949 µM) of 94.8%. For the same compound, the viability, T/C (second compound 0.316 µM, first compound 0.03 µM) was 104%, the viability, T/C (second compound 0.316 µM, first compound 0.0949 µM) was 93.1% and the viability, T/C (second compound 0.316 µM, first compound 0.3 µM) was 88.1%. It also gave a viability, T/C (second compound 0.316 µM, first compound 0.949 µM) of 85.9%, a viability, T/C (second compound 0.316 µM, first compound 3 µM) of 94% and a viability, T/C (second compound 1 µM, first compound 0.00949 µM) of 99.8%. It also gave a viability, T/C (second compound 1 µM, first compound 0.03 µM) of 97.6%, a viability, T/C (second compound 1 µM, first compound 0.0949 µM) of 95.3% and a viability, T/C (second compound 1 µM, first compound 0.3 µM) of 93%. The viability, T/C (second compound 1 µM, first compound 0.949 µM) was 104%, the viability, T/C (second compound 1 µM, first compound 3 µM) was 101% and the viability, T/C (second compound 3.16 µM, first compound 0.00949 µM) was 105%. It also gave a viability, T/C (second compound 3.16 µM, first compound 0.03 µM) of 114%, a viability, T/C (second compound 3.16 µM, first compound 0.0949 µM) of 102% and a viability, T/C (second compound 3.16 µM, first compound 0.3 µM) of 104%. It also gave a viability, T/C (second compound 3.16 µM, first compound 0.949 µM) of 102%, a viability, T/C (second compound 3.16 µM, first compound 3 µM) of 103% and a viability, T/C (second compound 10 µM, first compound 0.00949 µM) of 122%. For the same compound, the viability, T/C (second compound 10 µM, first compound 0.03 µM) was 119%, the viability, T/C (second compound 10 µM, first compound 0.0949 µM) was 122% and the viability, T/C (second compound 10 µM, first compound 0.3 µM) was 128%. It also gave a viability, T/C (second compound 10 µM, first compound 0.949 µM) of 127% and a viability, T/C (second compound 10 µM, first compound 3 µM) of 122%.

In the case of `COc1cccc2c1C(=O)c1c(O)c3c(c(O)c1C2=O)CC(O)(C(=O)CO)CC3OC1CC(N)C(O)C(C)O1` (stereo unspecified), the viability, T/C (compound 0.0316 µM) is reported as 100% and 108% and 103%, the viability, T/C (compound 0.1 µM) is reported as 102% and 110% and 125% and the viability, T/C (compound 0.316 µM) is reported as 101% and 112% and 108%. For the same compound, the viability, T/C (compound 1 µM) was 107% and 105% and 103%, the viability, T/C (compound 3.16 µM) was 88% and 77.8% and 89.9% and the viability, T/C (compound 10 µM) was 65.5% and 21.7% and 22.8%. For the same compound, the IC50 (curve of compound) was > 10 µM and 5.59 µM and 6.23 µM.

In the case of `O=C(C=Cc1cccc(S(=O)(=O)Nc2ccccc2)c1)NO`, the viability, T/C (compound 0.0316 µM) is reported as 101% and 91.6% and 104%, the viability, T/C (compound 0.1 µM) is reported as 95.5% and 88.6% and 91.7% and the viability, T/C (compound 0.316 µM) is reported as 93.9% and 90.1% and 87.8%. The viability, T/C (compound 1 µM) was 84.5% and 64.3% and 93%, the viability, T/C (compound 3.16 µM) was 83.8% and 59.3% and 84.6% and the viability, T/C (compound 10 µM) was 59.8% and 39.6% and 51.1%. For the same compound, the IC50 (curve of compound) was > 10 µM and 4.74 µM.

`COc1cccc2c1C(=O)c1c(O)c3c(c(O)c1C2=O)CC(O)(C(=O)CO)CC3OC1CC(N)C(O)C(C)O1` (stereo unspecified) + Cc1cncc(-c2nc(NCCc3c[nH]c4ccccc34)c3ncn(C(C)C)c3n2)c1 was tested, and the IC50 [1] was > 10 µM, the IC50 [2] was 5.54 µM and the IC50 [3] was 2.47 µM. It also gave an IC50 [4] of 1.35 µM, an IC50 [5] of 0.825 µM and a viability, T/C (second compound 0.1 µM, first compound 0.0316 µM) of 92.1%. It also gave a viability, T/C (second compound 0.1 µM, first compound 0.1 µM) of 92.6%, a viability, T/C (second compound 0.1 µM, first compound 0.316 µM) of 90.2% and a viability, T/C (second compound 0.1 µM, first compound 1 µM) of 80.4%. It also gave a viability, T/C (second compound 0.1 µM, first compound 3.16 µM) of 96.5%, a viability, T/C (second compound 0.1 µM, first compound 10 µM) of 50.4% and a viability, T/C (second compound 0.316 µM, first compound 0.0316 µM) of 89.7%. For the same compound, the viability, T/C (second compound 0.316 µM, first compound 0.1 µM) was 92.5%, the viability, T/C (second compound 0.316 µM, first compound 0.316 µM) was 88.3% and the viability, T/C (second compound 0.316 µM, first compound 1 µM) was 84.8%. The viability, T/C (second compound 0.316 µM, first compound 3.16 µM) was 70.6%, the viability, T/C (second compound 0.316 µM, first compound 10 µM) was 28.4% and the viability, T/C (second compound 1 µM, first compound 0.0316 µM) was 89.6%. The viability, T/C (second compound 1 µM, first compound 0.1 µM) was 97%, the viability, T/C (second compound 1 µM, first compound 0.316 µM) was 92.2% and the viability, T/C (second compound 1 µM, first compound 1 µM) was 89.6%. The viability, T/C (second compound 1 µM, first compound 3.16 µM) was 39.2%, the viability, T/C (second compound 1 µM, first compound 10 µM) was 0.75% and the viability, T/C (second compound 3.16 µM, first compound 0.0316 µM) was 91.3%. It also gave a viability, T/C (second compound 3.16 µM, first compound 0.1 µM) of 91.6%, a viability, T/C (second compound 3.16 µM, first compound 0.316 µM) of 93.6% and a viability, T/C (second compound 3.16 µM, first compound 1 µM) of 67.6%. For the same compound, the viability, T/C (second compound 3.16 µM, first compound 3.16 µM) was 0.25%, the viability, T/C (second compound 3.16 µM, first compound 10 µM) was 0.22% and the viability, T/C (second compound 10 µM, first compound 0.0316 µM) was 111%. For the same compound, the viability, T/C (second compound 10 µM, first compound 0.1 µM) was 96%, the viability, T/C (second compound 10 µM, first compound 0.316 µM) was 93.6% and the viability, T/C (second compound 10 µM, first compound 1 µM) was 42%. For the same compound, the viability, T/C (second compound 10 µM, first compound 3.16 µM) was 0.4% and the viability, T/C (second compound 10 µM, first compound 10 µM) was 0.25%.

In the case of `COc1cc(C2c3cc4c(cc3C(OC3OC5COC(C)OC5C(O)C3O)C3COC(=O)C23)OCO4)cc(OC)c1O` (stereo unspecified), the viability, T/C (compound 0.0316 µM) is reported as 98.8% and 103% and 94.7%, the viability, T/C (compound 0.1 µM) is reported as 105% and 103% and 102% and the viability, T/C (compound 0.316 µM) is reported as 95.7% and 114% and 106%. For the same compound, the viability, T/C (compound 1 µM) was 94.6% and 100% and 98.3%, the viability, T/C (compound 3.16 µM) was 95.8% and 108% and 98.9% and the viability, T/C (compound 10 µM) was 80% and 91.7% and 92.8%. The IC50 (curve of compound) was > 10 µM.
